Reference: patent publication US8932986B2, “Herbicidal composition” (Sumitomo Chemical Company, Limited, priority 2012, dated 2015)

Columns and labels:
[1] = system: Digitaria ciliaris; test: Herbicidal activity, soil spray on day of sowing, pot test in greenhouse, evaluated after seven days (Example 2); type: in vivo; details: 20 g/ha; sprayed on day of sowing; seven days after spray treatment; scale 0 to 100
Method: (§1) Digitaria ciliaris was sowed on a plastic pot filled with a soil. Following the sowing, on the day of the sowing, a mixed liquid of flumioxazin, pyrasulfotole, and mefenpyr-diethyl was sprayed uniformly so that the amounts of the agents might become those shown in Table 2 in a sprayed water amount of 500 L/ha. The mixed liquid of flumioxazin, pyrasulfotole, and mefenpyr-diethyl was prepared by dissolving the respective compounds in prescribed amounts separately in acetone containing 2% (w/v) of Tween 20 (surfactant, produced by Tokyo Chemical Industry Co., Ltd.), diluting the respective solutions with water and then combining them, followed by dilution with water so that the final acetone concentration of the spray liquid might be 10% by volume. After the spray treatment, the pot was carried into a greenhouse. Seven days after the spray treatment, the herbicidal activity to Digitaria ciliaris was evaluated.

[2] = system: Digitaria ciliaris; test: Herbicidal activity, soil spray on day of sowing, pot test in greenhouse, evaluated after ten days (Example 3); type: in vivo; details: 2 g/ha; sprayed on day of sowing; ten days after spray treatment; scale 0 to 100
Method: as §1, with “those as” for “those”, “Table 3” for “Table 2”, “greenhouse. Ten” for “greenhouse. Seven”

C#CCN1C(=O)COc2cc(F)c(N3C(=O)C4=C(CCCC4)C3=O)cc21 [Flumioxazin]
Herbicidal activity Digitaria ciliaris [1]: 10
Herbicidal activity Digitaria ciliaris [2]: 40
